# Structures can show the parent of a compound that is named as a salt.
row,melting point [°C],Compound
1,126,"O=C(NCc1ccc(Br)cc1)Nc1cccc2[nH]ncc12 (as salt: hydrochloride) [Example 89, N-(4-bromobenzyl)-N′-1H-indazol-4-ylurea]"
2,198,"O=C(NCc1ccc(Br)cc1)Nc1cccc2[nH]ccc12 [Example 78, N-(4-bromobenzyl)-N′-1H-indol-4-ylurea]"
3,201,"O=C(NCc1ccc(Cl)c(Cl)c1)Nc1cccc2[nH]ccc12 [Example 79, N-(3,4-dichlorobenzyl)-N′-1H-indol-4-ylurea]"
4,178,"O=C(NCc1ccc(C(F)(F)F)cc1)Nc1cccc2[nH]ccc12 [Example 80, N-1H-indol-4-yl-N′-[4-(trifluoromethyl)benzyl]urea]"
5,177,"O=C(NCc1ccc(OC(F)(F)F)cc1)Nc1cccc2[nH]ccc12 [Example 81, N-1H-indol-4-yl-N′-[4-(trifluoromethoxy)benzyl]urea]"
6,198,"O=C(NCc1ccc(C(F)(F)F)c(F)c1)Nc1cccc2[nH]ccc12 [Example 82, N-[3-fluoro-4-(trifluoromethyl)benzyl]-N′-1H-indol-4-ylurea]"
7,197,"O=C(NCc1ccc(Cl)c(C(F)(F)F)c1)Nc1cccc2[nH]ccc12 [Example 83, 1-(4-Chloro-3-trifluoromethyl-benzyl)-3-(1H-indol-4-yl)-urea]"
8,170,"O=C(NCCc1ccc(Cl)cc1Cl)Nc1cccc2[nH]ccc12 [Example 85, N-[2-(2,4-dichlorophenyl)ethyl]-N′-1H-indol-4-ylurea]"
9,190,"Cc1[nH]c2cccc(NC(=O)NCc3ccc(Br)cc3)c2c1C [Example 88, N-(4-bromobenzyl)-N′-(2,3-dimethyl-1H-indol-4-yl)urea]"

# From patent US20030158188A1, “Fused azabicyclic compounds that inhibit vanilloid receptor subtype 1 (VR1) receptor” (priority 2002, published 2003)
